Key:
[1] = biological target: T1, human FXR alpha ligand binding domain (Homo sapiens, UniProt Q96RI1); test: FRET activity assay (ligand mediated cofactor peptide interaction, LANCE); assay type: biochemical; conditions: potency range
T1 construct: made in house; host or cells: E. coli BL21(DE3), vector pDEST15
T1 sequence (Q96RI1 187-472 isoform Q96RI1-2): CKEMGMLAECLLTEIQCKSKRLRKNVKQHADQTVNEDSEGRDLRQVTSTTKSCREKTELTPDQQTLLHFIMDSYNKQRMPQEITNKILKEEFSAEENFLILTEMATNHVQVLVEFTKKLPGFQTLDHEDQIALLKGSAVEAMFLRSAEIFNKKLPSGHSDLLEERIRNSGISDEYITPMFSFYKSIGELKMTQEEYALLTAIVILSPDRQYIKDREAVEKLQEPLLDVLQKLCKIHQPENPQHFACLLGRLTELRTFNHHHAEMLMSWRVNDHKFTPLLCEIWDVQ
Method: Determination of a ligand mediated cofactor peptide interaction to quantify ligand binding to the nuclear receptor FXR was performed as follows: Preparation of human FXR alpha ligand binding domain: The human FXRalpha LBD was expressed in E. coli strain BL21(DE3) as an N-terminally GST tagged fusion protein. The DNA encoding the FXR ligand binding domain was cloned into vector pDEST15 (Invitrogen). Expression was under control of an IPTG inducible T7 promoter. The amino acid boundaries of the ligand binding domain were amino acids 187-472 of Database entry NM_005123 (RefSeq). Expression and purification of the FXR-LBD: An overnight preculture of a transformed E. coli strain was diluted 1:20 in LB-Ampicillin medium and grown at 30° C. to an optical density of OD600=0.4-0.6. Gene expression was then induced by addition of 0.5 mM IPTG. Cells were incubated an additional 6 h at 30° C., 180 rpm. Cells were collected by centrifugation (7000×g, 7 min, room temperature). Per liter of original cell culture, cells were resuspended in 10 mL lysis buffer (50 mM Glucose, 50 mM Tris pH 7.9, 1 mM EDTA and 4 mg/mL lysozyme) and left on ice for 30 min. Cells were then subjected to sonication and cell debris removed via centrifugation (22000×g, 30 min, 4° C.). Per 10 mL of supernatant 0.5 mL prewashed Glutathione 4B sepharose slurry (Qiagen) was added and the suspension kept slowly rotating for 1 h at 4° C. Glutathione 4B sepharose beads were pelleted by centrifugation (2000×g, 15 sec, 4° C.) and washed twice in wash buffer (25 mM Tris, 50 mM KCl, 4 mM MgCl2 and 1M NaCl). The pellet was resuspended in 3 mL elution buffer per liter of original culture (elution buffer: 20 mM Tris, 60 mM KCl, 5 mM MgCl2 and 80 mM glutathione added immediately prior to use as powder). The suspension was left rotating for 15 min at 4° C., the beads pelleted and eluted again with half the volume of elution buffer than the first time. The eluates were pooled and dialysed overnight in 20 mM Hepes buffer (pH 7.5) containing 60 mM KCl, 5 mM MgCl2 as well as 1 mM dithiothreitol and 10% (v/v) glycerol. The protein was analysed by SDS-Page.
The method measures the ability of putative ligands to modulate the interaction between the purified bacterial expressed FXR ligand binding domain (LBD) and a synthetic biotinylated peptide based on residues 676-700 of SRC-1 (LCD2, 676-700). […] The ligand binding domain (LBD) of FXR was expressed as fusion protein with GST in BL-21 cells using the vector pDEST15. Cells were lysed by sonication, and the fusion proteins purified over glutathione sepharose (Pharmacia) according to the manufacturers instructions. For screening of compounds for their influence on the FXR-peptide interaction, the Perkin Elmer LANCE technology was applied. This method relies on the binding dependent energy transfer from a donor to an acceptor fluorophor attached to the binding partner of interest. For ease of handling and reduction of background from compound fluorescence LANCE technology makes use of generic fluorophore labels and time resolved detection Assays were done in a final volume of 25 μL in a 384 well plate, in a Tris-based buffer (20 mM Tris-HCl pH 7.5; 60 mM KCl, 5 mM MgCl2; 35 ng/μL BSA), containing 20-60 ng/well recombinantly expressed FXR-LBD fused to GST, 200-600 nM N-terminally biotinylated peptide, representing SRC1 aminoacids 676-700, 200 ng/well Streptavidin-xIAPC conjugate (Prozyme) and 6-10 ng/well Eu W1024—antiGST (Perkin Elmer). DMSO content of the samples was kept at 1%. After generation of the assay mix and diluting the potentially FXR modulating ligands, the assay was equilibrated for one hour in the dark at room temperature in FIA-plates black 384 well (Greiner). The LANCE signal was detected by a Perkin Elmer VICTOR2V™ Multilabel Counter. The results were visualized by plotting the ratio between the emitted light at 665 and 615 nm.

[2] = biological target: T2, FXR ligand binding domain (Homo sapiens, UniProt Q96RI1); test: Mammalian One Hybrid (M1H) Gal4 reporter assay in HEK293 cells; assay type: cell-based; conditions: potency range
T2 construct: expressed in transfected cells; host or cells: HEK293 cells (DSMZ), transient transfection of pCMV-BD-FXR-LBD
T2 sequence (Q96RI1 187-472 isoform Q96RI1-2): T1 sequence (Q96RI1 187-472 isoform Q96RI1-2)
Method: Determination of a ligand mediated Gal4 promoter driven transactivation to quantify ligand binding mediated activation of FXR was performed as follows: The cDNA part encoding the FXR ligand binding domain was cloned into vector pCMV-BD (Stratagene) as a fusion to the yeast GAL4 DNA binding domain under the control of the CMV promoter. The amino acid boundaries of the ligand binding domain were amino acids 187-472 of Database entry NM_005123 (RefSeq). The plasmid pFR-Luc (Stratagene) was used as the reporter plasmid, containing a synthetic promoter with five tandem repeats of the yeast GAL4 binding sites, driving the expression of the Photinus pyralis (American firefly) luciferase gene as the reporter gene. In order to improve experimental accuracy the plasmid pRL-CMV (Promega) was cotransfected. pRL-CMV contains the constitutive CMV promoter, controlling the expression of the Renilla reniformis luciferase. All Gal4 reporter gene assays were done in HEK293 cells (obtained from DSMZ, Braunschweig, Germany) grown in MEM with L-Glutamine and Earle's BSS supplemented with 10% fetal bovine serum, 0.1 mM nonessential amino acids, 1 mM sodium pyruvate, and 100 units Penicillin/[…] per mL at 37° C. in 5% CO2. Medium and supplements were obtained from Invitrogen. For the assay, […] were plated per well in 96 well plates in 100 μL per well MEM without Phenol Red and L-Glutamine and with Earle's BSS supplemented with 10% charcoal/dextran treated FBS (HyClone, South Logan, Utah), 0.1 mM nonessential amino acids, 2 mM glutamine, 1 mM sodium pyruvate, and 100 units Penicillin/[…] per mL, incubated at 37° C. in 5% CO2. The following day the cells were >90% confluence. Medium was removed and cells were transiently transfected using 20 μL per well of a OptiMEM—polyethylene-imine-based transfection-reagent (OptiMEM, Invitrogen; Polyethyleneimine, Aldrich Cat No. 40, 827-7) including the three plasmids described above. MEM with the same composition as used for plating cells was added 2-4 h after addition of transfection mixture. Then compound stocks, prediluted in MEM were added (final vehicle concentration not exceeding 0.1%). Cells were incubated for additional 16 h before firefly and renilla luciferase activities were measured sequentially in the same cell extract using a Dual-Light-Luciferase-Assay system (Dyer et al., Anal. Biochem. 2000, 282, 158-161). All experiments were done in triplicates.

| EC50 [1] [nM] | EC50 [2] [nM] | Compound |
| --- | --- | --- |
| 10 to 100 | 10 to 100 | Cn1nc(C(=O)O)c2ccc(C3CC3c3ccc(OCc4c(-c5c(Cl)cccc5Cl)noc4C4CC4)cc3Cl)cc21 (racemic) [Example 13, 6-(2-(2-chloro-4-((5-cyclopropyl-3-(2,6-dichlorophenyl)isoxazol-4-yl)methoxy)phenyl)cyclopropyl)-1-methyl-1H-indazole-3-carboxylic acid] |
| > 100 | > 100 | O=C(O)c1cccc(C2CC2c2ccc(OCc3c(-c4c(Cl)cccc4Cl)noc3C3CC3)cc2Cl)c1 (single isomer, unassigned; (+)) [Example 5b, (+)-3-(2-(2-chloro-4-((5-cyclopropyl-3-(2,6-dichlorophenyl)isoxazol-4-yl)methoxy)phenyl)cyclopropyl)benzoic acid] |
| > 100 | > 100 | O=C(O)c1ccc(C2CC2c2ccc(OCc3c(-c4c(Cl)cccc4Cl)noc3C3CC3)cc2Cl)cc1 (single isomer, unassigned; (+)) [Example 12b, (+)-4-(2-(2-chloro-4-((5-cyclopropyl-3-(2,6-dichlorophenyl)isoxazol-4-yl)methoxy)phenyl)cyclopropyl)benzoic acid] |
| 10 to 100 | 10 to 100 | Cn1nc(C(=O)O)c2ccc(C3CC3c3ccc(OCc4c(-c5c(Cl)cccc5Cl)noc4C4CC4)cc3Cl)cc21 (single isomer, unassigned; (+)) [Example 13a, (+)-6-(2-(2-chloro-4-((5-cyclopropyl-3-(2,6-dichlorophenyl)isoxazol-4-yl)methoxy)phenyl)cyclopropyl)-1-methyl-1H-indazole-3-carboxylic acid] |
| < 10 | 10 to 100 | O=C(O)c1cccc(C2CC2c2ccc(OCc3c(-c4c(Cl)cccc4Cl)noc3C3CC3)cc2Cl)c1 (single isomer, unassigned; (-)) [Example 5a, (−)-3-(2-(2-chloro-4-((5-cyclopropyl-3-(2,6-dichlorophenyl)isoxazol-4-yl)methoxy)phenyl)cyclopropyl)benzoic acid] |
| < 10 | < 10 | Cn1nc(C(=O)O)c2ccc(C3CC3c3ccc(OCc4c(-c5c(Cl)cccc5Cl)noc4C4CC4)cc3Cl)cc21 (single isomer, unassigned; (-)) [Example 13b, (−)-6-(2-(2-chloro-4-((5-cyclopropyl-3-(2,6-dichlorophenyl)isoxazol-4-yl)methoxy)phenyl)cyclopropyl)-1-methyl-1H-indazole-3-carboxylic acid] |
| 10 to 100 | 10 to 100 | O=C(O)c1cccc(C2CC2c2ccc(OCc3c(-c4c(Cl)cncc4Cl)noc3C3CC3)cc2Cl)c1 (stereo not shown) [Example 1, 3-(2-(2-chloro-4-((5-cyclopropyl-3-(3,5-dichloropyridin-4-yl)isoxazol-4-yl)methoxy)phenyl)cyclopropyl)-benzoic acid] |
| 10 to 100 | 10 to 100 | O=C(O)c1cccc(C2CC2c2ccc(OCc3c(-c4c(Cl)c[n+]([O-])cc4Cl)noc3C3CC3)cc2Cl)c1 (stereo not shown) [Example 2, 4-(4-((4-(2-(3-carboxyphenyl)cyclopropyl)-3-chlorophenoxy)methyl)-5-cyclopropylisoxazol-3-yl)-3,5-dichloropyridine 1-oxide] |
| 10 to 100 | 10 to 100 | CC(C)c1nnn(-c2c(Cl)cccc2Cl)c1COc1ccc(C2CC2c2cccc(C(=O)O)c2)c(Cl)c1 (stereo not shown) [Example 3, 3-(2-(2-chloro-4-((1-(2,6-dichlorophenyl)-4-isopropyl-1H-1,2,3-triazol-5-yl)methoxy)phenyl)cyclopropyl)benzoic acid] |
| 10 to 100 | 10 to 100 | CC(C)c1onc(-c2c(Cl)cccc2Cl)c1COc1ccc(C2CC2c2cccc(C(=O)O)c2)c(Cl)c1 (stereo not shown) [Example 6, 3-(2-(2-chloro-4-((3-(2,6-dichlorophenyl)-5-isopropylisoxazol-4-yl)methoxy)phenyl)cyclopropyl)benzoic acid] |
| 10 to 100 | 10 to 100 | Clc1cc(OCc2c(-c3c(Cl)cccc3Cl)noc2C2CC2)ccc1C1CC1c1ccc(-c2nnn[nH]2)nc1 (stereo not shown) [Example 7, 4-((4-(2-(6-(1H-tetrazol-5-yl)pyridin-3-yl)cyclopropyl)-3-chlorophenoxy)methyl)-5-cyclopropyl-3-(2,6-dichlorophenyl)isoxazole] |
| 10 to 100 | 10 to 100 | O=C(O)c1ccc(C2CC2c2ccc(OCc3c(-c4c(Cl)cccc4Cl)noc3C3CC3)cc2Cl)cn1 (stereo not shown) [Example 8, 5-(2-(2-chloro-4-((5-cyclopropyl-3-(2,6-dichlorophenyl)isoxazol-4-yl)methoxy)-phenyl)cyclopropyl)picolinic acid] |
| 10 to 100 | > 100 | O=C(NCCS(=O)(=O)O)c1ccc(C2CC2c2ccc(OCc3c(-c4c(Cl)cccc4Cl)noc3C3CC3)cc2Cl)cc1 (stereo not shown) [Example 15, 2-(4-(2-(2-chloro-4-((5-cyclopropyl-3-(2,6-dichlorophenyl)isoxazol-4-yl)methoxy)phenyl)cyclopropyl)benzamido)ethanesulfonic acid] |
| > 100 | > 100 | CC(C)(O)c1onc(-c2c(Cl)cccc2Cl)c1COc1ccc(C2CC2c2ccc(C(=O)O)cc2)c(Cl)c1 (stereo not shown) [Example 17, 4-(2-(2-chloro-4-((3-(2,6-dichlorophenyl)-5-(2-hydroxypropan-2-yl)isoxazol-4-yl)methoxy)phenyl)cyclopropyl)benzoic acid] |

Reference: US8952042B2, “FXR (NR1H4) binding and activity modulating compounds” (Phenex Pharmaceuticals AG, priority 2009, dated 2015)
